Measured values: patent US8252814B2, “Agents and crystals for improving excretory potency of urinary bladder” (priority 1998, dated 2012)
pIC50: −log10 of the molar value.

How the values were obtained:
[1] = Stability test, Experimental Example 7; assay type: physicochemical
Description: A number of specimens of the crystals obtained in Example 1 were stored under the following conditions and then their changes in the property and the remaining percent were determined.
Storing conditions: 1. 60° C. for 3 months (in a brown glass bottle, closed); 2. 45° C., the relative humidity of 75% for 3 months (in a brown glass bottle, closed); 3. 40° C., the to relative humidity of 75% for 3 months (in a brown glass bottle, opened); 4. irradiated with a xenon lamp (60000 lux) for 20 hours (1.2 million lux/hour) (on a Petri dish covered with a polyvinylidene chloride film).

[2] = target: T1, human erythrocyte-derived acetylcholine esterase (Homo sapiens, UniProt P22303); assay: Determination of the activity to inhibit the acetylcholine esterase of the crystals (Ellman method), Experimental Example 5; assay type: biochemical; settings: at least three experiments
T1 construct: Acetylcholinesterase of human erythrocyte origin (Sigma Chemical Co.); purchased Sigma Chemical Co; host or cells: human erythrocytes (natural source)
Description: The activity to inhibit the acetylcholine esterase of the crystals obtained in Example 1 was determined according to the acetylthiocholine method (the Ellman method) by the use of a human erythrocyte-derived acetylcholine esterase.
A human erythrocyte-derived acetylcholine esterase (Sigma Chemical Company) was dissolved into distilled water to obtain a standard enzyme preparation with an enzyme concentration of 0.2 IU/mL. […]
The activity to inhibit the acetylcholine esterase of the crystals obtained in Example 1 was determined according to the acetylthiocholine method (the ElIman method) by the use of a human erythrocyte-derived acetylcholine esterase.
A human erythrocyte-derived acetylcholine esterase (Sigma Chemical Company) was dissolved into distilled water to obtain a standard enzyme preparation with an enzyme concentration of 0.2 IU/mL. […] As soon as 50 μl of a 4-mM solution of acetylthiocholine iodide (Sigma Chemical Company) was added and shaking was started again, every increment in absorbance at the wavelength of 414 nm at an interval of 30 seconds was determined for 10 minutes. R=5.74×10^−7×ΔA (wherein R indicates an enzyme activity (mol) and ΔA indicates an increment in absorbance at the wavelength of 414 nm). […] Furthermore, the activity to inhibit the acetylcholine esterase of distigmine was determined in a manner similar to that described in the above method.

T1 sequence (P22303 32-617 isoform P22303-2 limits assumed): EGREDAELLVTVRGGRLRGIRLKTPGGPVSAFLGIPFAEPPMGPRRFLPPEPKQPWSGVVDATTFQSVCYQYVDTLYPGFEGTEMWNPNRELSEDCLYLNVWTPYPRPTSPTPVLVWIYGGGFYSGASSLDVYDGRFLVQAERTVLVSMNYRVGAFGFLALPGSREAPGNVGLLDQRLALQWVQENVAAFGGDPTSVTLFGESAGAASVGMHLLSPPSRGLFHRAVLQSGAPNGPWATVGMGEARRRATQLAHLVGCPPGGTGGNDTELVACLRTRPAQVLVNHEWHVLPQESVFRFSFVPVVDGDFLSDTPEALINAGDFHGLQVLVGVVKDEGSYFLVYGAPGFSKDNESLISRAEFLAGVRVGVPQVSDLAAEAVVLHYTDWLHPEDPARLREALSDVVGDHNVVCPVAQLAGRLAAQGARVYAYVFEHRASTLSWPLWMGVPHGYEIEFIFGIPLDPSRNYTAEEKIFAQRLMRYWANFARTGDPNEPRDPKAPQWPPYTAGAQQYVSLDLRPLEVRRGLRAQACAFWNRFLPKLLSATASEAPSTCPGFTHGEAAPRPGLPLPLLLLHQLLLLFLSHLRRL

For O=C(CCC1CCN(Cc2cccc(F)c2)CC1)c1cc2c3c(c1)CCN3C(=O)CC2 [Example 1, 8-[3-[1-[(3-fluorophenyl)-methyl]-4-piperidinyl]-1-oxopropyl]-1,2,5,6-tetrahydro-4H-pyrrolo-[3,2,1-ij]quinolin-4-one], which “Remaining percent (%)” value ([1]; storing condition 1 (60° C./3 months), brown glass bottle, closed) is on record?
Its value is 99.8%.

And the “Remaining percent (%)” value ([1]; storing condition 2 (40° C./75% RH, closed), 3 months, brown glass bottle)?
Its value is 101.6%.

And the “Remaining percent (%)” value ([1]; storing condition 3 (40° C./75% RH, open), 3 months, brown glass bottle)?
The value was 100.2%.

What about the “Remaining percent (%)” value ([1]; storing condition 4 (Xenon lamp/20 hs.), 60000 lux) of the same compound?
Its value is 100.1%.

And the “stability (in words)” value ([1]; storing conditions 1 to 4)?
Its value is “any change in the property and any decrease in the remaining percent were not observed”.

What about the pIC50 [2] of the same compound?
The pIC50 was 8.18.
